# ± gives the expanded uncertainty stated by the source.
# Conditions: 369.8 K; Liquid; Ebulliometric method (Recirculating still)
compound,measurement,value
CCCO [propan-1-ol],vapor or sublimation pressure,100 ± 2 kPa

# Reference: the NIST ThermoML archive (doi:10.1016/j.jct.2017.06.005)
